Broadly, the inhibition is the drop in the measured response relative to a control, in per cent. What is called IC50 is the concentration that inhibits the measured activity by half.

One test addresses D2S (h) (Homo sapiens, UniProt P14416). As to the kind of experiment: SafetyScreen44 binding assay D2S (h). The note with it: agonist radioligand, read-out: % Inhibition of Specific Control Binding. The source says: (§1) This panel included 38 binding assays and six functional assays of well-established targets and pathways that lead to off-target adverse drug reactions.
Another test concerns the target delta (DOP) (h) (Homo sapiens, UniProt P41143). As to the kind of experiment: SafetyScreen44 binding assay delta (DOP) (h). As to conditions: agonist radioligand, read-out: % Inhibition of Specific Control Binding.
Excerpt: as §1

Another test concerns the target acetylcholinesterase (h) (Homo sapiens, UniProt P22303). Briefly: SafetyScreen44 enzyme assay acetylcholinesterase (h). Type of test: biochemical. As to conditions: at 1 μM.
Excerpt: as §1

For another test, the target named is H1 (h) (Homo sapiens, UniProt P35367). Briefly: SafetyScreen44 binding assay H1 (h). As to conditions: antagonist radioligand, read-out: % Inhibition of Specific Control Binding.
Excerpt: as §1

A further test deals with dopamine transporter (h) (Homo sapiens, UniProt Q01959). As to the kind of experiment: SafetyScreen44 binding assay dopamine transporter (h). The note with it: antagonist radioligand, read-out: % Inhibition of Specific Control Binding.
Excerpt: as §1

The target of the next test is M2 (h) (Homo sapiens, UniProt P08172). Briefly: SafetyScreen44 binding assay M2 (h). As to conditions: antagonist radioligand, read-out: % Inhibition of Specific Control Binding.
Excerpt: as §1

A further test addresses D1 (h) (Homo sapiens, UniProt P21728). Briefly: SafetyScreen44 binding assay D1 (h). As to conditions: antagonist radioligand, read-out: % Inhibition of Specific Control Binding.
Excerpt: as §1

Another test has as its target 5-HT1B (h) (Homo sapiens, UniProt P28222). As to the kind of experiment: SafetyScreen44 binding assay 5-HT1B (h). As to conditions: antagonist radioligand, read-out: % Inhibition of Specific Control Binding.
Excerpt: as §1

Another test has as its target H2 (h) (Homo sapiens, UniProt P25021). As to the kind of experiment: SafetyScreen44 binding assay H2 (h). The note with it: antagonist radioligand, read-out: % Inhibition of Specific Control Binding.
Excerpt: as §1

The target in another test is human AChE (Homo sapiens, UniProt P22303). It counts as biochemical.
For the next test, the target named is kappa (h) (KOP) (Homo sapiens, UniProt P41145). As to the kind of experiment: SafetyScreen44 binding assay kappa (h) (KOP). The note with it: agonist radioligand, read-out: % Inhibition of Specific Control Binding.
Excerpt: as §1

For test [1], the target named is norepinephrine transporter (h) (Homo sapiens, UniProt P23975). Briefly: SafetyScreen44 binding assay norepinephrine transporter (h). The note with it: antagonist radioligand, read-out: % Inhibition of Specific Control Binding.
Excerpt: as §1

The target of the next test is alpha 2A (h) (Homo sapiens, UniProt P08913). Briefly: SafetyScreen44 binding assay alpha 2A (h). As to conditions: antagonist radioligand, read-out: % Inhibition of Specific Control Binding.
Excerpt: as §1

The target of another test is COX2(h) (Homo sapiens, UniProt P35354). As to the kind of experiment: SafetyScreen44 enzyme assay COX2(h). It counts as biochemical. As to conditions: read-out: % Inhibition of Control Values.
Excerpt: as §1

For a further test, the target named is M1 (h) (Homo sapiens, UniProt P11229). Briefly: SafetyScreen44 binding assay M1 (h). As to conditions: antagonist radioligand, read-out: % Inhibition of Specific Control Binding.
Excerpt: as §1

The test system of a further test is Na+ channel (site 2). Briefly: SafetyScreen44 binding assay Na+ channel (site 2). As to conditions: at 1 μM; antagonist radioligand.
Excerpt: as §1

human AChE, sequence (P22303 32-614): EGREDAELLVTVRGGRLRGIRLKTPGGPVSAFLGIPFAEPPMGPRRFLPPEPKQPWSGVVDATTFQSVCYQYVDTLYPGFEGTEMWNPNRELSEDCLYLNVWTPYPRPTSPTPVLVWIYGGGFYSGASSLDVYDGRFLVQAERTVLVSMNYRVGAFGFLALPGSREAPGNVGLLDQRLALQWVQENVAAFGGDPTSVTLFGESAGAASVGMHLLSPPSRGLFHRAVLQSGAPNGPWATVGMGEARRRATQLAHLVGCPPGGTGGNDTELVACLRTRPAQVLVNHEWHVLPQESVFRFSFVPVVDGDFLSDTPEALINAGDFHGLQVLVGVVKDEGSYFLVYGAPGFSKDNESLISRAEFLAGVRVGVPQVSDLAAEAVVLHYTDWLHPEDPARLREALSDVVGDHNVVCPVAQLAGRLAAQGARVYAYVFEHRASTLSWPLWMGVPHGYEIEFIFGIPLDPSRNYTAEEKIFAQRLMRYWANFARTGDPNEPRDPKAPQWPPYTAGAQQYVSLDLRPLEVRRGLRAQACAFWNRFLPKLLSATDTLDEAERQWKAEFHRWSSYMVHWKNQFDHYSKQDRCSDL
D2S (h), sequence (P14416 1-414 isoform P14416-2): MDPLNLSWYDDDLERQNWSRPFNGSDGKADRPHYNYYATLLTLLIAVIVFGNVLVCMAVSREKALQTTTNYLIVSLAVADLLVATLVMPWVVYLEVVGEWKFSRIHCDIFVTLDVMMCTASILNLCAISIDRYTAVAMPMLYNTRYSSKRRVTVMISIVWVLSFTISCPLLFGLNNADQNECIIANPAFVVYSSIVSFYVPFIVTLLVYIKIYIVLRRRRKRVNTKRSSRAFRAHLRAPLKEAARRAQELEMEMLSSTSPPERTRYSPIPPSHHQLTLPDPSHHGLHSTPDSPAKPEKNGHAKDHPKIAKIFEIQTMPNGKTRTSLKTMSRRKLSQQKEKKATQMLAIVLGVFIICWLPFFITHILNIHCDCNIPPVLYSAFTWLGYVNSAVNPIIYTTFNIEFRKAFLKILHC
5-HT1B (h), sequence (P28222 whole entry): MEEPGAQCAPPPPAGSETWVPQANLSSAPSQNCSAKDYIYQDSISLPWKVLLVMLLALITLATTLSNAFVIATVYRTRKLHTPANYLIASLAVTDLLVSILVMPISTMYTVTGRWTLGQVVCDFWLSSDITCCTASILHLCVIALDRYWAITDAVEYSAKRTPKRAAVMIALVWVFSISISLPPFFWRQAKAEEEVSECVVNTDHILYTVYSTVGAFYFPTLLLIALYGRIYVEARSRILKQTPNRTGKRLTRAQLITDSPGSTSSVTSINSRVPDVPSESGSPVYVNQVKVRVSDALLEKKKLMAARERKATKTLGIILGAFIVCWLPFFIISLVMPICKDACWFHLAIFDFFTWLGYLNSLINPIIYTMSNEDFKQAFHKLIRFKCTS
delta (DOP) (h), sequence (P41143 whole entry): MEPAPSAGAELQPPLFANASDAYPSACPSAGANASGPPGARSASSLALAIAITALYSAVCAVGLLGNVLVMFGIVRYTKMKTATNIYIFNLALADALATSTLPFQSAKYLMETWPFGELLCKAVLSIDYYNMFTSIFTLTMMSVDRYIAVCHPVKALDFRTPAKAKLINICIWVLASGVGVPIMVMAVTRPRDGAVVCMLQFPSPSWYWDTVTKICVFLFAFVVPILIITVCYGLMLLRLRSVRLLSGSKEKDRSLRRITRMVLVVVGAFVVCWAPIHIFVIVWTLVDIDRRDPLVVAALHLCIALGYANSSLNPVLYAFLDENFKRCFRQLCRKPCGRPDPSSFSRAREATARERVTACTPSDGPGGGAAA
kappa (h) (KOP), sequence (P41145 whole entry): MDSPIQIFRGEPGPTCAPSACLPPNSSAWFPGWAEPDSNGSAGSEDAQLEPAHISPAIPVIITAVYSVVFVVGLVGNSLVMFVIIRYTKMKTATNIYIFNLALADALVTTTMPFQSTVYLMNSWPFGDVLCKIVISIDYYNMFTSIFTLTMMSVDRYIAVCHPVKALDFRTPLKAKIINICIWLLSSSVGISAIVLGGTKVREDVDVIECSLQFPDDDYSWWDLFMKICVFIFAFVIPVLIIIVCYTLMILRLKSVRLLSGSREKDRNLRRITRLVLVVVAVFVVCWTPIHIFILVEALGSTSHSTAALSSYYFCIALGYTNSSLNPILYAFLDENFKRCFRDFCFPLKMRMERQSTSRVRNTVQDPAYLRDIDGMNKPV
norepinephrine transporter (h), sequence (P23975 whole entry): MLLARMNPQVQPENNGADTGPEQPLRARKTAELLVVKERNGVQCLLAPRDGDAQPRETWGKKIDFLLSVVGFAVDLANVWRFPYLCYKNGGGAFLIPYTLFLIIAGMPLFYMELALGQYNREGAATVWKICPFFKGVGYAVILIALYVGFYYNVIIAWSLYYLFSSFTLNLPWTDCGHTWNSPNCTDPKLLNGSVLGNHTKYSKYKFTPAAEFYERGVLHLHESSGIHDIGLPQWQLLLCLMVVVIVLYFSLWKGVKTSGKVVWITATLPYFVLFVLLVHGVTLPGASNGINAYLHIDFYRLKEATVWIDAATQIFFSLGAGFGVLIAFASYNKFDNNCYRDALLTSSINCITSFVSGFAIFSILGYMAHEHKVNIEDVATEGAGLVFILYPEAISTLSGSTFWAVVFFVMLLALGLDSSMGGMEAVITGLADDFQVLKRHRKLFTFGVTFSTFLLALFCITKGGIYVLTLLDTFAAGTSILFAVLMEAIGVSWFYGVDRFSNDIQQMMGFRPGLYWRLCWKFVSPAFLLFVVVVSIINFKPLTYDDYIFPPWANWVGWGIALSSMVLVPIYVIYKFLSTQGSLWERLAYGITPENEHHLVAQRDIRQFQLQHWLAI
H1 (h), sequence (P35367 whole entry): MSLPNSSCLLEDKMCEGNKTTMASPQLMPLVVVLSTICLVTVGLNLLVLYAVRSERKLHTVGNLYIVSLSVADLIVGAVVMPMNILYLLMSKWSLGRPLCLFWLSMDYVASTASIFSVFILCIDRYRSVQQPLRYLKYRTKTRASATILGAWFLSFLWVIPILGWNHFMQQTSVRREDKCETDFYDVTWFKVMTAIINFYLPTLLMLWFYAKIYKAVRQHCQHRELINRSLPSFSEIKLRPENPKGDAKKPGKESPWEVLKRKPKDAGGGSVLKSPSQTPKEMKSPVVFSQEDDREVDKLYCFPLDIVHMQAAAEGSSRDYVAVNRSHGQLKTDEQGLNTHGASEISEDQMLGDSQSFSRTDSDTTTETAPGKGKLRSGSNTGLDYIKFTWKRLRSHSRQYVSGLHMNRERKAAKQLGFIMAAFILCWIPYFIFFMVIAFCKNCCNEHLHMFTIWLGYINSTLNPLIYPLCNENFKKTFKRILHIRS
acetylcholinesterase (h), sequence (P22303 32-614): as the sequence (P22303 32-614) above
H2 (h), sequence (P25021 whole entry): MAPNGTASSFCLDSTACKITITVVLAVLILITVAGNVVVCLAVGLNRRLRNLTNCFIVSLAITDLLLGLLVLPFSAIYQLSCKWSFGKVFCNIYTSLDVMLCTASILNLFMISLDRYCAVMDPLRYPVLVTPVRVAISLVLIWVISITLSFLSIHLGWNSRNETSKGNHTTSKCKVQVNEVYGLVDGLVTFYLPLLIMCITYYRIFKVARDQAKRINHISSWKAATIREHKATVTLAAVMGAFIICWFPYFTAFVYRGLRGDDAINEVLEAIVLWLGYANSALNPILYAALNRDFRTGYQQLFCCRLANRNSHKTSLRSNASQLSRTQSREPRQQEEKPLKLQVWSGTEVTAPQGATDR
M2 (h), sequence (P08172 whole entry): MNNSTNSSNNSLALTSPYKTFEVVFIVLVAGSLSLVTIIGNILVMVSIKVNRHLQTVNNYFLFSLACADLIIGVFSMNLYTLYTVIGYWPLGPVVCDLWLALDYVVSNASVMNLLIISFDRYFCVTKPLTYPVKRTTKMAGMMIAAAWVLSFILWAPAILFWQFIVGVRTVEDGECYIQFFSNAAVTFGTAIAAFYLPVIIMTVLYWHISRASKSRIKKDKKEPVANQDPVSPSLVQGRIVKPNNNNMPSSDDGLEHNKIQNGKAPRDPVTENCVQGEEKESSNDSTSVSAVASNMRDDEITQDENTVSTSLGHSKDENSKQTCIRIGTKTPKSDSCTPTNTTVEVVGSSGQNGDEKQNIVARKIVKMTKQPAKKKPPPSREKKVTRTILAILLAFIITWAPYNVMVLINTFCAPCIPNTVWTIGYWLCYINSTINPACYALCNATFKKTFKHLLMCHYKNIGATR
alpha 2A (h), sequence (P08913 whole entry): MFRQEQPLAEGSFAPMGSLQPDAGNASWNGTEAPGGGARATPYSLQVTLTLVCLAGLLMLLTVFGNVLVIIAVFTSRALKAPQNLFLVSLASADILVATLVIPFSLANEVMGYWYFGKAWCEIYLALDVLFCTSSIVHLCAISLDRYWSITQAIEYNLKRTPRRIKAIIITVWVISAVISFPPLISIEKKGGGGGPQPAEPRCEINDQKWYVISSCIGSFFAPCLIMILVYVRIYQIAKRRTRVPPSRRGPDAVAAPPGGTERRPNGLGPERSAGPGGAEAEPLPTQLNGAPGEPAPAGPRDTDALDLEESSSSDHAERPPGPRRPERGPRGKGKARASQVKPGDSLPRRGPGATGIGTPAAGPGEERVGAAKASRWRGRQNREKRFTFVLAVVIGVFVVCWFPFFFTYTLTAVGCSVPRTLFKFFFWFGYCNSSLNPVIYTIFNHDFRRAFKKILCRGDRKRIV

With `CCN(CC)CCOc1ccc2c(c1)C(=O)c1cc(OCCN(CC)CC)ccc1-2` [tilorone], the inhibition at 1 µM was 1% on D2S (h); 0% at delta (DOP) (h); -6% on H1 (h); -9% on dopamine transporter (h); 26% on M2 (h); -10% at D1 (h). The inhibition at 1 µM at 5-HT1B (h) is 21%; at H2 (h), -11%; at kappa (h) (KOP), 4%; in [1] it was 14%; at alpha 2A (h), 0%; at COX2(h) it was -1%. For the same molecule, the inhibition at 1 µM at M1 (h) was 28%. The “% Inhibition of Control Values” on acetylcholinesterase (h) is reported as 92%. Moreover, at human AChE (% Inhibition of Control Values), the “Bottom of curve, Eurofins human AChE” value is −7. The “Top of curve, Eurofins human AChE” value at human AChE (% Inhibition of Control Values) is listed as 99. Also, the IC50 at human AChE (third-party photometric assay, read-out: IC50 against human AChE (Eurofins Discovery)) worked out at 56 nM. Also, the “Hill slope, Eurofins human AChE curve” value at human AChE (two-fold dilution from 5 μM) worked out at 1.0. The “% Inhibition of Specific Control Binding” value in the test with Na+ channel (site 2) stood at 1%.
